Assay results taken from ChEMBL document CHEMBL1142842, “Trifluoromethylation of flavonoids and anti-tumor activity of the trifluoromethylated flavonoid derivatives” (2005).

Assays:
U2OS [1] = assay: In vitro effect on the S phase of cell cycle of U2OS cells upon incubation at 37 degree for 24 hours in FCM assay at concentration of 500 nM; format: functional, Homo sapiens
U2OS [2] = assay: In vitro effect on the G1 phase of cell cycle of U2OS cells upon incubation at 37 degree for 24 hours in FCM assay at concentration of 500 nM; format: functional, Homo sapiens
U2OS [3] = assay: In vitro effect on the G2/M phase of cell cycle of U2OS cells upon incubation at 37 degree for 24 hours in FCM assay at concentration of 500 nM; format: functional, Homo sapiens
U2OS [4] = assay: In vitro effect on the G2/M phase of cell cycle of U2OS cells upon incubation at 37 degree for 24 hours in FCM assay; all the cell died at tested concentration (500 nM); format: functional, cell-based; settings: Homo sapiens
U2OS [5] = assay: In vitro effect on the S phase of cell cycle of U2OS cells upon incubation at 37 degree for 24 hours in FCM assay; all the cell died at tested concentration (500 nM); format: functional, cell-based; settings: Homo sapiens
U2OS [6] = assay: In vitro effect on the G1 phase of cell cycle of U2OS cells upon incubation at 37 degree for 24 hours in FCM assay; all the cell died at tested concentration (500 nM); format: functional, cell-based; settings: Homo sapiens

Row | SMILES | Content of cell cycle (U2OS [1]) | Content of cell cycle (U2OS [2]) | Content of cell cycle (U2OS [3]) | also measured
1 | COc1ccc(-c2c(C(F)(F)F)oc3cc(OC)cc(OC)c3c2=O)cc1 | – | – | – | Activity (U2OS [1]): 48.02%; Activity (U2OS [2]): 46.69%; Activity (U2OS [3]): 5.29%
2 | COc1cc(OC)c2c(c1)OC(c1ccccc1)=CC2(O)C(F)(F)F (stereo not given) | – | – | – | Activity (U2OS [4]): all the cells died at tested concentration (500 nM); Activity (U2OS [5]): all the cells died at tested concentration (500 nM); Activity (U2OS [6]): all the cells died at tested concentration (500 nM)
3 | COc1ccc(-c2oc3cc(OC)cc(OC)c3c(=O)c2C(F)(F)F)cc1 | 49.24% | 44.09% | 6.67% | –
4 | COc1cc(OC)c2c(=O)c(C(F)(F)F)c(-c3ccccc3)oc2c1 | 31.95% | 53.06% | 14.99% | –
5 | COc1cc(OC)c2c(=O)cc(-c3cc(C(F)(F)F)c(OC)c(C(F)(F)F)c3)oc2c1 | 44.92% | 55.08% | 0% | –
